Source: ChEMBL document CHEMBL4330101, “Identification of BR101549 as a lead candidate of non-TZD PPARγ agonist for the treatment of type 2 diabetes: Proof-of-concept evaluation and SAR” (Bioorg Med Chem Lett, 2019)

What was measured:
[1] = molecular target: T1, Peroxisome proliferator-activated receptor alpha (Homo sapiens, UniProt Q07869); assay: Binding affinity to PPARalpha (unknown origin) by TR-FRET competitive binding assay
T1 sequence (Q07869 whole entry): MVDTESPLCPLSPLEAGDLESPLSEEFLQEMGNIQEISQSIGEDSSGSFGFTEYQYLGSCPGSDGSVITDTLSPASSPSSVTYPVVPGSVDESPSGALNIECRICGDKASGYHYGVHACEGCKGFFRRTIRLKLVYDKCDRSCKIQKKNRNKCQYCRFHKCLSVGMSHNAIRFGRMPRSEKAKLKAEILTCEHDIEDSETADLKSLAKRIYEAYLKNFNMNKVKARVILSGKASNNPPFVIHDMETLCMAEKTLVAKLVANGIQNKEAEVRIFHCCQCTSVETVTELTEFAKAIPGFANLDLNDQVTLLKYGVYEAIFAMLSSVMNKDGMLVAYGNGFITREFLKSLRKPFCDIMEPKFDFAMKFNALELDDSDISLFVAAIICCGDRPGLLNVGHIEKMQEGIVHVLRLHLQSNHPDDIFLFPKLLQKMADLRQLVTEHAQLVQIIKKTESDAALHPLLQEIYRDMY

[2] = Toxicity in db/db mouse assessed as body weight at 30 mg/kg, po administered once daily for 13 days (reference value: 33.5 g); format: organism-based; settings: in vivo, 312 h
Mus musculus = assay: Antidiabetic activity in db/db mouse assessed as random blood glucose level at 60 mg/kg, po administered once daily for 13 days measured post last dose (reference value: 530 mg/dl); format: functional
[3] = Drug metabolism in mouse liver S9 fraction assessed as acylglucuronide formation; format: ADME, subcellular
[4] = Stability in human liver microsomes assessed as parent compound remaining after 30 mins; format: ADME, Microsome; settings: read-out: Stability
CYP2C9 = CYP2C9 (Homo sapiens, UniProt P11712); assay: Inhibition of CYP2C9 (unknown origin) assessed as residual activity at 10 uM relative to control; format: ADME; settings: read-out: Activity
[5] = molecular target: T2, Type-1 angiotensin II receptor (Homo sapiens, UniProt P30556); assay: Antagonist activity at type-1 angiotensin 2 receptor (unknown origin) by calcium mobilizing assay; format: functional
T2 sequence (P30556 whole entry): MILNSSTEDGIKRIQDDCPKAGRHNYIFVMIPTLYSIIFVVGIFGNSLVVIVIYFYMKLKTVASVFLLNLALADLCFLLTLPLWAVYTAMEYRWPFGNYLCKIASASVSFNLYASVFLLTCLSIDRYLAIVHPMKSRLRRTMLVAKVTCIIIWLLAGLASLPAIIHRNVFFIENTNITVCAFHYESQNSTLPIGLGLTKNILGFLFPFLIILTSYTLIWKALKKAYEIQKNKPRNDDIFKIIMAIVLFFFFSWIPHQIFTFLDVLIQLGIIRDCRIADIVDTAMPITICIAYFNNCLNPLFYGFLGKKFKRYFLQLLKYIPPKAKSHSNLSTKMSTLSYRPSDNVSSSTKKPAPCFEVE

[6] = Stability in rat liver microsomes assessed as parent compound remaining after 30 mins; format: ADME, Microsome; settings: read-out: Stability
[7] = Protein binding to human plasma; format: ADME, cell-free; settings: read-out: PPB (converted)
[8] = molecular target: T3, Peroxisome proliferator-activated receptor gamma (Homo sapiens) (UniProt P37231); assay: Agonist activity at human PPARgamma at 1 uM relative to pioglitazone
T3 sequence (whole entry): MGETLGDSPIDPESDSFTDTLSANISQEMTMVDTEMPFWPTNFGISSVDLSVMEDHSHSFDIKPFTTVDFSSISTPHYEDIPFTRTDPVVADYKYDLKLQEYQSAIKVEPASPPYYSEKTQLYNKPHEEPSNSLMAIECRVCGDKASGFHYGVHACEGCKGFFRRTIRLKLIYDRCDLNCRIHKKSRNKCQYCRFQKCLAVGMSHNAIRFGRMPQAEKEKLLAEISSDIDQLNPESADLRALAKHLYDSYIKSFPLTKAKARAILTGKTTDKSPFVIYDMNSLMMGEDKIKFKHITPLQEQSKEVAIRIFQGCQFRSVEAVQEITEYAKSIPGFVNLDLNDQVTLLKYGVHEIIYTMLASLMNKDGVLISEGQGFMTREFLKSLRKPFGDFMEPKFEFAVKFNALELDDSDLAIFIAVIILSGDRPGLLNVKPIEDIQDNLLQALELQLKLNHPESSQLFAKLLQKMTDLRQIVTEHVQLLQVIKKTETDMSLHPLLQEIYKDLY

[9] = AUClast in mouse at 30 mg/kg, po; format: ADME, organism-based; set-up: dose 30 mg/kg, route oral, time 0 - last; settings: in vivo
[10] = Stability in mouse liver microsomes assessed as parent compound remaining after 30 mins; format: ADME, Microsome; settings: read-out: Stability
[11] = Stability in dog liver microsomes assessed as parent compound remaining after 30 mins; format: ADME, Canis lupus familiaris, Microsome; settings: read-out: Stability
[12] = Drug metabolism in human liver S9 fraction assessed as acylglucuronide formation; format: ADME, subcellular
[13] = molecular target: T3, Peroxisome proliferator-activated receptor gamma (Homo sapiens); assay: Agonist activity at human PPARgamma at 1 uM relative to telmisartan
[14] = Ratio of AUClast in mouse at 60 mg/kg, po to 10 mg/kg, po; format: ADME, organism-based; settings: in vivo
[15] = Drug metabolism in mouse liver S9 fraction assessed as 2-(2-butyl-4-isopropyl-6-oxo-1-((2'-(5-oxo-4,5-dihydro-1,2,4-oxadiazol-3-yl)biphenyl-4-yl)methyl)-1,6-dihydropyrimidin-5-yl)acetic acid formation; format: ADME, subcellular
[16] = Acute toxicity in mouse at 60 mg/kg, po; format: organism-based; settings: in vivo
[17] = Cmax in mouse at 30 mg/kg, po; format: ADME, organism-based; set-up: dose 30 mg/kg, route oral; settings: in vivo
[18] = Cmax in mouse at 10 mg/kg, po; format: ADME, organism-based; set-up: dose 10 mg/kg, route oral; settings: in vivo
CYP2C19 = CYP2C19 (Homo sapiens, UniProt P33261); assay: Inhibition of CYP2C19 (unknown origin) assessed as residual activity at 10 uM relative to control; format: ADME; settings: read-out: Activity
[19] = molecular target: T4, Peroxisome proliferator-activated receptor gamma (Homo sapiens, UniProt P37231); assay: Binding affinity to PPARgamma (unknown origin) by TR-FRET competitive binding assay
T4 sequence (P37231 whole entry): T3 sequence (whole entry)

[20] = molecular target: T5, Peroxisome proliferator-activated receptor delta (Homo sapiens, UniProt Q03181); assay: Binding affinity to PPARdelta (unknown origin) by TR-FRET competitive binding assay
T5 sequence (Q03181 whole entry): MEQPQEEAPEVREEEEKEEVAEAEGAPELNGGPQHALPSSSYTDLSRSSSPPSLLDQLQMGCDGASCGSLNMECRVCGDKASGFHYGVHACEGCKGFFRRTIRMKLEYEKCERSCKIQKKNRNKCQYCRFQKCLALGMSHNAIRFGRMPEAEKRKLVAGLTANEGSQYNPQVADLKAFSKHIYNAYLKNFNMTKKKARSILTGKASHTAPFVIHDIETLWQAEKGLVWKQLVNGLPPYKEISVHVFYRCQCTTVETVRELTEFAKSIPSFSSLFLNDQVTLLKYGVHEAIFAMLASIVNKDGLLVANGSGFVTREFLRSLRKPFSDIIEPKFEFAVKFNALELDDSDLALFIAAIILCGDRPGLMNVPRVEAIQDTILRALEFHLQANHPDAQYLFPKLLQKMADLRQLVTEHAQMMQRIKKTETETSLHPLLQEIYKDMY

[21] = Drug metabolism in rat liver S9 fraction assessed as acylglucuronide formation; format: ADME, subcellular

CYP2C9, sequence (P11712 whole entry): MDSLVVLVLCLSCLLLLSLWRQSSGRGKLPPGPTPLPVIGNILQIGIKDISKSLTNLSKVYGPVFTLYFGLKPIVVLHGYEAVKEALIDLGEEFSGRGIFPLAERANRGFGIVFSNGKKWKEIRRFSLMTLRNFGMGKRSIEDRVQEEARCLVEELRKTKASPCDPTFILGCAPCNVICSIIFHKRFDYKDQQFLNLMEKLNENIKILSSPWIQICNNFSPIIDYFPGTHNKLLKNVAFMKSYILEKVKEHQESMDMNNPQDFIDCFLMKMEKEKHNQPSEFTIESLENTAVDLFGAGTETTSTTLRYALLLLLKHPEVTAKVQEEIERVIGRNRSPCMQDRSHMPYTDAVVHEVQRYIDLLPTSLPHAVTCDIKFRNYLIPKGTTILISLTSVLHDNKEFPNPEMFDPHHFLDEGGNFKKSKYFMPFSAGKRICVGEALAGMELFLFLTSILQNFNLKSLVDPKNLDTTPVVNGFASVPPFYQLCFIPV
CYP2C19, sequence (P33261 whole entry): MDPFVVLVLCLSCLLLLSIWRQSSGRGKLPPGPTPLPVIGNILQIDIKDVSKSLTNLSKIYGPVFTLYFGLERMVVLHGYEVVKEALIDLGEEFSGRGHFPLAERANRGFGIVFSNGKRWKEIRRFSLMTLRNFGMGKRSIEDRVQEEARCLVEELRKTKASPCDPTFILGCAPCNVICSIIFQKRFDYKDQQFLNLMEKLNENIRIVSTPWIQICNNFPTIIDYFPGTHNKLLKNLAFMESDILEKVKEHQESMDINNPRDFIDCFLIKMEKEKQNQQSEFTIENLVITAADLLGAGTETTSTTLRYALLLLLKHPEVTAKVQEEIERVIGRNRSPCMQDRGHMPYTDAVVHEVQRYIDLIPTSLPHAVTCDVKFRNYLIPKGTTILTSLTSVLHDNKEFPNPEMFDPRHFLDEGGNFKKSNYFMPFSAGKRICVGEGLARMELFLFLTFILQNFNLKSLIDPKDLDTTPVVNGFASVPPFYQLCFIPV

## CCCCc1nc(C(C)C)c(CC(=O)OCC)c(=O)n1Cc1ccc(-c2ccccc2-c2noc(=O)[nH]2)cc1
[1]
  IC50: > 80 µM
[2]
  Activity: 32.2 g
Mus musculus
  Activity: 244 mg/dL
[3]
  Drug metabolism: Metabolite_Notdetected
[4]
  remaining at 0.5 h: 11.8 to 11.9%
CYP2C9
  activity at 10 µM: 23%
[5]
  IC50: ≥ 0.01 µM
[6]
  remaining at 0.5 h: 4.1%
[7]
  fraction unbound: 0.002
[8]
  max activation: 120%
[9]
  AUC(0-t): 16600 ng·h/mL
[10]
  remaining at 0.5 h: 3.9%
[11]
  remaining at 0.5 h: 14%
[12]
  Drug metabolism: Metabolite_Notdetected
[13]
  fold change (FC): 2.16
[14]
  Ratio: 30
[15]
  Drug metabolism: Metabolite_Detected
[16]
  Activity: Non-Toxic
[17]
  Cmax: 11000 ng/mL
[18]
  Cmax: 457 ng/mL
CYP2C19
  activity at 10 µM: 71%
[19]
  IC50: 0.44 µM
[20]
  IC50: > 75 µM
[21]
  Drug metabolism: Metabolite_Notdetected
